The target in assay [1] is T1, Vascular endothelial growth factor A, long form (Homo sapiens) (UniProt P15692).
T1 sequence (whole entry): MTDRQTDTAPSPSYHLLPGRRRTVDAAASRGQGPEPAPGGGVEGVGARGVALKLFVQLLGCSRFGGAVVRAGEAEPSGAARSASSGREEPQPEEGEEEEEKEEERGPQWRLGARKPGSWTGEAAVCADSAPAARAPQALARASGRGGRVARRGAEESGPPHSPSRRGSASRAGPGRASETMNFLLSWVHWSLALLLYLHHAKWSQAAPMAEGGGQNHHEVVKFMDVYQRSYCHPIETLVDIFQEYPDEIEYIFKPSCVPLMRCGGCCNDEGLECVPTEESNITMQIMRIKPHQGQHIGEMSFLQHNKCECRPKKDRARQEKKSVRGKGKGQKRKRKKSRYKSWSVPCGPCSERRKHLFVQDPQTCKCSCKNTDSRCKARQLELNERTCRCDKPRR
Kind of assay: Binding affinity to human VEGF (13 to 107 residues) expressed in Escherichia coli Rosetta (DE3) cells assessed as change in enthalpy at 20 degreeC by isothermal titration calorimetry analysis. On the technique in general: ITC needs no label: the signal is the heat of the interaction.

Assay [2] addresses T1, Vascular endothelial growth factor A, long form (Homo sapiens). As to the kind of experiment: Binding affinity to human VEGF (13 to 107 residues) expressed in Escherichia coli Rosetta (DE3) cells assessed as Gibbs free energy change at 37 degreeC by isothermal titration calorimetry analysis.
Assay [3] shares this target. Kind of assay: Binding affinity to human VEGF (13 to 107 residues) expressed in Escherichia coli Rosetta (DE3) cells assessed as Gibbs free energy change at 20 degreeC by isothermal titration calorimetry analysis.
Assay [4] has as its system HUVEC. As to the kind of experiment: Antiangiogenic activity in human HUVEC cells assessed as inhibition of VEGFA-induced cell migration incubated for 12 hrs by wound healing assay. The format is functional, cell-based.
Assay [5] deals with T1, Vascular endothelial growth factor A, long form (Homo sapiens). Kind of assay: Binding affinity to human VEGF (13 to 107 residues) expressed in Escherichia coli Rosetta (DE3) cells assessed as change in entropy at 37 degreeC by isothermal titration calorimetry analysis.
For assay [6] the target is unchanged. As to the kind of experiment: Binding affinity to human VEGF (13 to 107 residues) expressed in Escherichia coli Rosetta (DE3) cells assessed as change in heat capacity at 20 degreeC by isothermal titration calorimetry analysis.
The test system of assay [7] is HUVEC. As to the kind of experiment: Antiangiogenic activity in human HUVEC cells assessed as inhibition of VEGFA-induced capillary tube formation incubated for 6 hrs by matrigel based microscopic analysis. The format is functional, cell-based.
Assay [8] has as its target T2, Vascular endothelial growth factor A, long form (Homo sapiens, UniProt P15692).
T2 sequence (P15692 whole entry): T1 sequence (whole entry)
Kind of assay: Binding affinity to human VEGF (13 to 107 residues) expressed in Escherichia coli Rosetta (DE3) cells assessed as dissociation constant at 20 degreeC by isothermal titration calorimetry analysis.

Assay [9] concerns the target T1, Vascular endothelial growth factor A, long form (Homo sapiens). As to the kind of experiment: Binding affinity to human VEGF (13 to 107 residues) expressed in Escherichia coli Rosetta (DE3) cells assessed as change in enthalpy at 37 degreeC by isothermal titration calorimetry analysis.
Assay [10] deals with T2, Vascular endothelial growth factor A, long form. As to the kind of experiment: Binding affinity to human VEGF (13 to 107 residues) expressed in Escherichia coli Rosetta (DE3) cells assessed as dissociation constant at 37 degreeC by isothermal titration calorimetry analysis.
Assay [11] deals with T1, Vascular endothelial growth factor A, long form (Homo sapiens). Kind of assay: Binding affinity to human VEGF (13 to 107 residues) expressed in Escherichia coli Rosetta (DE3) cells assessed as change in entropy at 20 degreeC by isothermal titration calorimetry analysis.

Starred links: 1 amine or outer side, 2 acyl side, 3 side chain; linkers in the order of their positions; H or OH if unused. Positions of bridges follow the written chain, without caps; N, C: chain ends. Residues, ends and D or L forms follow the SMILES beside them. Chains are numbered I, II in the order given. *: point of attachment. X2 = O=C(O)CCOCCOCCOCCOCCOCCOCCOCCOCCOCCOCCOCCOCCOCCOCCOCCOCCOCCOCCOCCOCCOCCOCCOCCOCCOCCC(=O)*; CO(CH2CH2O)5CH2CH2CO = O=C(CCOCCOCCOCCOCCOCCC(=O)[*:2])[*:1]

Data on three molecules can be found in ChEMBL document CHEMBL5346952, “Dimer Peptide Ligands of Vascular Endothelial Growth Factor: Optimizing Linker Length for High Affinity and Antiangiogenic Activity” (J Med Chem, 2023).

The term Kd denotes the concentration at which binding is half-saturated.

Regarding `CC[C@H](C)[C@@H]1NC(=O)[C@H](CC(=O)O)NC(=O)[C@@H](NC(C)=O)CSSC[C@@H]2NC(=O)[C@H](CCCCNC(=O)C[C@@H](C(=O)N[C@@H](CC(C)C)C(N)=O)NC(=O)[C@H](CCC(=O)O)NC(=O)[C@H](Cc3ccccc3)NC2=O)NC(=O)[C@H](Cc2c[nH]c3ccccc23)NC(=O)[C@H](CCC(=O)O)NC(=O)[C@H](Cc2c[nH]c3ccccc23)NC(=O)[C@H](CCCCNC(=O)CCOCCOCCOCCOCCOCCC(=O)NCCCC[C@@H]2NC(=O)[C@H](C(C)C)NC(=O)[C@H](Cc3cnc[nH]3)NC(=O)[C@H]([C@@H](C)CC)NC(=O)[C@H](CC(=O)O)NC(=O)[C@@H](NC(C)=O)CSSC[C@@H]3NC(=O)[C@H](CCCCNC(=O)C[C@@H](C(=O)N[C@@H](CC(C)C)C(N)=O)NC(=O)[C@H](CCC(=O)O)NC(=O)[C@H](Cc4ccccc4)NC3=O)NC(=O)[C@H](Cc3c[nH]c4ccccc34)NC(=O)[C@H](CCC(=O)O)NC(=O)[C@H](Cc3c[nH]c4ccccc34)NC2=O)NC(=O)[C@H](C(C)C)NC(=O)[C@H](Cc2cnc[nH]2)NC1=O` (I: Ac-CDIHVKWEWKCFEDL-NH2 / II: Ac-CDIHVKWEWKCFEDL-NH2; disulfide I:1-I:11, II:1-II:11; linker I:6-II:6 via CO(CH2CH2O)5CH2CH2CO; lactam I:10-I:14, II:10-II:14), the deltaH was -37.7 kcal/mol in assay [1] and -46.4 kcal/mol in assay [9]. Also, the deltaG in [2] was -10 kcal/mol; in assay [3] it was -10.4 kcal/mol. Besides, the Activity entry in assay [4] and in assay [7] was “Dose-Dependent Effect” throughout. Further, the -TdeltaS in assay [5] turned out to be 36.4 kcal/mol; in [11] it was 27.3 kcal/mol. Further, the DeltaCp in assay [6] is -0.51 kcal/mol/K. The Kd in assay [8] was 18 nM; in [10] it was 89 nM.

For `CC[C@H](C)[C@@H]1NC(=O)[C@H](CC(=O)O)NC(=O)[C@@H](NC(C)=O)CSSC[C@@H]2NC(=O)[C@H](CCCCNC(=O)C[C@@H](C(=O)N[C@@H](CC(C)C)C(N)=O)NC(=O)[C@H](CCC(=O)O)NC(=O)[C@H](Cc3ccccc3)NC2=O)NC(=O)[C@H](Cc2c[nH]c3ccccc23)NC(=O)[C@H](CCC(=O)O)NC(=O)[C@H](Cc2c[nH]c3ccccc23)NC(=O)[C@H](CCCCNC(C)=O)NC(=O)[C@H](C(C)C)NC(=O)[C@H](Cc2cnc[nH]2)NC1=O` (Ac-CDIHVK(Ac)WEWKCFEDL-NH2; disulfide 1-11; lactam 10-14), the deltaH is -19.5 kcal/mol in [1] and -25.5 kcal/mol in assay [9]. For the same molecule, the deltaG in assay [2] is -9.32 kcal/mol; in assay [3] it was -9.79 kcal/mol. In addition, the Activity result in assay [4] and in assay [7] was “Dose-Dependent Effect” in each case. Further, the -TdeltaS turned out to be 16.2 kcal/mol in assay [5] and 9.66 kcal/mol in assay [11]. Also, in [6], the DeltaCp is -0.36 kcal/mol/K. The Kd in assay [8] was determined as 50 nM; in assay [10], 272 nM.

Turning to `CC[C@H](C)[C@@H]1NC(=O)[C@H](CC(=O)O)NC(=O)[C@@H](NC(C)=O)CSSC[C@@H]2NC(=O)[C@H](CCCCNC(=O)C[C@@H](C(=O)N[C@@H](CC(C)C)C(N)=O)NC(=O)[C@H](CCC(=O)O)NC(=O)[C@H](Cc3ccccc3)NC2=O)NC(=O)[C@H](Cc2c[nH]c3ccccc23)NC(=O)[C@H](CCC(=O)O)NC(=O)[C@H](Cc2c[nH]c3ccccc23)NC(=O)[C@H](CCCCNC(=O)CCOCCOCCOCCOCCOCCOCCOCCOCCOCCOCCOCCOCCOCCOCCOCCOCCOCCOCCOCCOCCOCCOCCOCCOCCOCCC(=O)O)NC(=O)[C@H](C(C)C)NC(=O)[C@H](Cc2cnc[nH]2)NC1=O` (Ac-CDIHVK(X2)WEWKCFEDL-NH2; disulfide 1-11; lactam 10-14), the deltaH in assay [1] is -18.6 kcal/mol; in assay [9], -24 kcal/mol. Besides, the deltaG in assay [2] is -8.5 kcal/mol; in assay [3], -9.12 kcal/mol. The Activity result in assay [4] and in assay [7] was “Dose-Dependent Effect” in each case. The -TdeltaS came out at 15.5 kcal/mol in assay [5] and 9.51 kcal/mol in assay [11]. In assay [6], the DeltaCp is -0.31 kcal/mol/K. Further, the values for the Kd in assay [8] and in assay [10] were 158 nM and 1030 nM, respectively.
